Measured values reported in patent EP0326331B1, “Substituted quinolines and cinnolines” (Dow AgroSciences LLC, priority 1988, dated 1989).

What was measured:
Format in all cases: in vivo
[1] = tested on: Erysiphe graminis tritici (powdery mildew); assay: Test 1 greenhouse foliar spray screen, powdery mildew on wheat; conditions: disease control rating, foliar spray on wheat, 400 ppm (+++ at 100 ppm)
[2] = tested on: Pseudoperonospora cubensis (downy mildew); assay: Test 1 greenhouse foliar spray screen, downy mildew on squash; conditions: disease control rating, foliar spray on squash, 400 ppm (+++ at 100 ppm)
[3] = tested on: Botrytis cinerea (gray mold); assay: Test 1 greenhouse foliar spray screen, gray mold on grape berries; conditions: disease control rating, spray on grape berries, 400 ppm (+++ at 100 ppm)
[4] = tested on: Pyricularia oryzae (rice blast); assay: whole plant or invertebrate; conditions: disease control rating, foliar spray on rice, 400 ppm (+++ at 100 ppm)
[5] = tested on: Venturia inaequalis (apple scab); assay: Test 1 greenhouse foliar spray screen, apple scab on apple seedling; conditions: disease control rating, foliar spray on apple seedling, 400 ppm (+++ at 100 ppm)
[6] = tested on: southern armyworm (Spodopetra eridania Cramer); assay: Mite/insect screen, SAW; conditions: Spodoptera eridania, percent mortality, SAW, read-out: SAW RESULTS %; for mortality at 200 ppm: SM & MA RATE 200 PPM; for mortality at 400 ppm: SM & MA RATE 400 PPM
In short: (§1)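 Compounds dissolved in acetone/alcohol (50:50) with TOXIMUL R and S emulsifiers, diluted in water to test concentrations, and sprayed to runoff on both leaf surfaces at 10 psi, then dried 1 h. For armyworm, excised treated leaves were offered to larvae; percent mortality scored after standard exposure periods.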

[7] = tested on: melon aphids (Aphis gossypii Glover); assay: Mite/insect screen, MA; conditions: Aphis gossypii, percent mortality, SAW, read-out: MA RESULTS %; for mortality at 200 ppm: SM & MA RATE 200 PPM; for mortality at 400 ppm: SM & MA RATE 400 PPM
In short: as §1

corn rootworm = assay: Mite/insect screen, CRW; conditions: percent mortality, read-out: CRW RESULTS %; for mortality at 12 ppm: CRW RATE 12.00 PPM; for mortality at 24 ppm: CRW RATE 24.00 PPM
In short: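 Compounds dissolved in 50:50 acetone/alcohol with TOXIMUL R and S emulsifiers (23 and 13 g/L), then diluted in water to the stated test concentrations. Percent mortality of corn rootworm scored after standard exposure periods.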

[8] = tested on: Cercospora beticola (leaf spot); assay: Test 1 greenhouse foliar spray screen, leaf spot on sugar beet; conditions: disease control rating, foliar spray on sugar beet, 400 ppm (+++ at 100 ppm)
[9] = tested on: Septoria tritici (leaf blotch); assay: Test 1 greenhouse foliar spray screen, leaf blotch on wheat; conditions: disease control rating, foliar spray on wheat, 400 ppm (+++ at 100 ppm)
[10] = tested on: Puccinia recondita tritici (leaf rust); assay: Test 1 greenhouse foliar spray screen, leaf rust on wheat; conditions: disease control rating, foliar spray on wheat, 400 ppm (+++ at 100 ppm)
[11] = tested on: Twospotted spider mites (Tetranychus urticae Koch); assay: Mite/insect screen, SM; conditions: Tetranychus urticae, percent mortality, SAW, read-out: SM RESULTS %; for mortality at 200 ppm: SM & MA RATE 200 PPM; for mortality at 400 ppm: SM & MA RATE 400 PPM
In short: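 Compounds dissolved in 50:50 acetone/alcohol containing sulfonate/nonionic emulsifier blends, then diluted with water to the indicated concentrations. Leaves sprayed on both surfaces to runoff at 10 psi and dried one hour. Percent mortality scored after standard exposure periods.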

| Compound | POWD MDEW [1] | DOWN MDEW [2] | GRAY MOLD [3] | RICE BLAST [4] | APPL SCAB [5] | mortality at 200 ppm [6] | mortality at 400 ppm [6] | mortality at 200 ppm [7] | mortality at 400 ppm [7] | mortality at 12 ppm (corn rootworm) | mortality at 24 ppm (corn rootworm) | LEAF SPOT [8] | LEAF BLOT [9] | LEAF RUST [10] | mortality at 200 ppm [11] | mortality at 400 ppm [11] |
| --- | --- | --- | --- | --- | --- | --- | --- | --- | --- | --- | --- | --- | --- | --- | --- | --- |
| Clc1ccc(CCNc2ccnc3cc(Cl)ccc23)c(Cl)c1 [Example 44, 7-chloro-N-[2-(2,4-dichlorophenyl)ethyl]-4-quinolinamine] | +++ (90-100% control at 100 ppm) | +++ (90-100% control at 100 ppm) | - (0-19% control at 400 ppm) | + (20-89% control at 400 ppm) | + (20-89% control at 400 ppm) | 0% | 0% | 0% | 0% | 0% | 0% | +++ (90-100% control at 100 ppm) | - (0-19% control at 400 ppm) | + (20-89% control at 400 ppm) | 0% | 0% |
| COc1cc(CCNc2ccnc3cc(Cl)ccc23)cc(OC)c1 [Example 45, 7-chloro-N-[2-(3,5-dimethoxyphenyl)ethyl]-4-quinolinamine] | + (20-89% control at 400 ppm) | ++ (90-100% control at 400 ppm) | - (0-19% control at 400 ppm) | ++ (90-100% control at 400 ppm) | - (0-19% control at 400 ppm) | 0% | 0% | 0% | 0% | 0% | 0% | +++ (90-100% control at 100 ppm) | - (0-19% control at 400 ppm) | + (20-89% control at 400 ppm) | 0% | 0% |
| COc1ccc(CCNc2ccnc3ccc(C)cc23)cc1 [Example 46, N-[2-(4-methoxyphenyl)ethyl]-6-methyl-4-quinolinamine] | + (20-89% control at 400 ppm) | ++ (90-100% control at 400 ppm) | - (0-19% control at 400 ppm) | ++ (90-100% control at 400 ppm) | + (20-89% control at 400 ppm) | 0% | 0% | 0% | 0% | 0% | 0% | +++ (90-100% control at 100 ppm) | + (20-89% control at 400 ppm) | + (20-89% control at 400 ppm) | 0% | 0% |
| COc1ccc(CCNc2ccnc3cc(C(F)(F)F)ccc23)cc1OC [Example 48, N-[2-(3,4-dimethoxyphenyl)ethyl]-7-(trifluoromethyl)-4-quinolinamine] | + (20-89% control at 400 ppm) | ++ (90-100% control at 400 ppm) | - (0-19% control at 400 ppm) | + (20-89% control at 400 ppm) | - (0-19% control at 400 ppm) | 0% | 0% | 0% | 0% | 0% | 0% | + (20-89% control at 400 ppm) | - (0-19% control at 400 ppm) | + (20-89% control at 400 ppm) | 0% | 0% |
| Cc1ccc(CCNc2ccnc3cc(Cl)ccc23)cc1 [Example 50, 7-chloro-N-[2-(4-methylphenyl)ethyl]-4-quinolinamine] | +++ (90-100% control at 100 ppm) | +++ (90-100% control at 100 ppm) | - (0-19% control at 400 ppm) | - (0-19% control at 400 ppm) | - (0-19% control at 400 ppm) | 0% | 0% | 0% | 0% | 0% | 0% | - (0-19% control at 400 ppm) | - (0-19% control at 400 ppm) | ++ (90-100% control at 400 ppm) | 0% | 0% |
| Fc1ccc(CCNc2ccnc3c(Cl)cccc23)cc1 [Example 51, 8-chloro-N-[2-(4-fluorophenyl)ethyl]-4-quinolinamine] | - (0-19% control at 400 ppm) | +++ (90-100% control at 100 ppm) | - (0-19% control at 400 ppm) | + (20-89% control at 400 ppm) | - (0-19% control at 400 ppm) | 0% | 20% | 0% | 0% | 0% | 0% | +++ (90-100% control at 100 ppm) | - (0-19% control at 400 ppm) | + (20-89% control at 400 ppm) | 0% | 0% |
| FC(F)(F)c1cccc2c(NCCc3ccc(Cl)cc3Cl)ccnc12 [Example 52, N-[2-(2,4-dichlorophenyl)ethyl]-8-(trifluoromethyl)-4-quinolinamine] | - (0-19% control at 400 ppm) | +++ (90-100% control at 100 ppm) | - (0-19% control at 400 ppm) | + (20-89% control at 400 ppm) | - (0-19% control at 400 ppm) | 0% | 0% | 0% | 0% | 0% | 0% | + (20-89% control at 400 ppm) | +++ (90-100% control at 100 ppm) | + (20-89% control at 400 ppm) | 0% | 0% |
| Cc1ccc2nccc(NCCc3ccc(Cl)cc3Cl)c2c1 [Example 53, .N-[2-(2,4-dichlorophenyl)ethyl]-6-methyl-4-quinolinamine] | +++ (90-100% control at 100 ppm) | +++ (90-100% control at 100 ppm) | - (0-19% control at 400 ppm) | + (20-89% control at 400 ppm) | - (0-19% control at 400 ppm) | 0% | 0% | 0% | 0% | 0% | 0% | +++ (90-100% control at 100 ppm) | + (20-89% control at 400 ppm) | + (20-89% control at 400 ppm) | 0% | 0% |
| COc1cc2c(NCCc3ccccc3)cc(C)nc2cc1Cl [Example 54, 7-chloro-6-methoxy-2-methyl-N-(2-phenylethyl)-4-quinolinamine] | - (0-19% control at 400 ppm) | +++ (90-100% control at 100 ppm) | - (0-19% control at 400 ppm) | ++ (90-100% control at 400 ppm) | - (0-19% control at 400 ppm) | 0% | – | 0% | – | 0% | – | +++ (90-100% control at 100 ppm) | + (20-89% control at 400 ppm) | + (20-89% control at 400 ppm) | 0% | – |
| COc1ccccc1CCNc1ccnc2ccccc12 [Example 55, N-[2-(2-methoxyphenyl)ethyl]-4-quinolinamine] | + (20-89% control at 400 ppm) | ++ (90-100% control at 400 ppm) | - (0-19% control at 400 ppm) | ++ (90-100% control at 400 ppm) | - (0-19% control at 400 ppm) | 0% | – | 0% | – | 0% | – | +++ (90-100% control at 100 ppm) | - (0-19% control at 400 ppm) | + (20-89% control at 400 ppm) | 0% | – |
